Measured values reported in patent US9650339B2, “Inhibitors of histone demethylases” (Gilead Sciences, Inc., priority 2013, dated 2017).

Assays:
Assay type in all cases: biochemical
KDM2B (FBXL10) = target: T1, KDM2B (FBXL10) (Homo sapiens, UniProt Q8NHM5); assay: Histone lysine demethylase AlphaLISA assay, KDM2B; settings: read-out: KDM2B HDME Inhibition IC50
T1 sequence (Q8NHM5 1-650): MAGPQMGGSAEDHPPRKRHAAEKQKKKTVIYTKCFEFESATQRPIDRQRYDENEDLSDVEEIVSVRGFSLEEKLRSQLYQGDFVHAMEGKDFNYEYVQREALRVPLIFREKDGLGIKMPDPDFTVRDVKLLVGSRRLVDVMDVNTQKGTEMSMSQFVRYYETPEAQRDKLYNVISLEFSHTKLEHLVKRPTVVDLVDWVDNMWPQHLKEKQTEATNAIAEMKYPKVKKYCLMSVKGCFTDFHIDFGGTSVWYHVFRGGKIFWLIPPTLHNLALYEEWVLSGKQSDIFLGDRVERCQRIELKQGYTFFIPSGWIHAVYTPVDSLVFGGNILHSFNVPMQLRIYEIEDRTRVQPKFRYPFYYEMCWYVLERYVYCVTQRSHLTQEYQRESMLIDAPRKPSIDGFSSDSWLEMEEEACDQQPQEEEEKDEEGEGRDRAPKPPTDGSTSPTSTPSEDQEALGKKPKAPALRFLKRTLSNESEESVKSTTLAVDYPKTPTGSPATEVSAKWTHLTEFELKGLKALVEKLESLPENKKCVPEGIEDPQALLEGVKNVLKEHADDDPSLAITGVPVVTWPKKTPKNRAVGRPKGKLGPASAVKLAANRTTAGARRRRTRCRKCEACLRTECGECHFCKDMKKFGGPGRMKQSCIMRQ
In short: (§1)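 Biotinylated methylated H3 peptides (K9, K4, K27 or K36 marks) served as substrate, with 25 μM L-Asc and 10 μM α-KG. Enzymes were preincubated 10 min, then exposed to compounds (3% DMSO solutions) 10 min; product detected by AlphaLISA acceptor and streptavidin donor beads at room temperature in dark.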

KDM4B (JMJD2B) = target: T2, KDM4B (JMJD2B) (Homo sapiens, UniProt O94953); assay: Histone lysine demethylase AlphaLISA assay, KDM4B; settings: read-out: KDM4B HDME Inhibition IC50
T2 construct: 2-500; purchased BPS; host or cells: Bac (baculovirus system)
T2 sequence (O94953 2-500): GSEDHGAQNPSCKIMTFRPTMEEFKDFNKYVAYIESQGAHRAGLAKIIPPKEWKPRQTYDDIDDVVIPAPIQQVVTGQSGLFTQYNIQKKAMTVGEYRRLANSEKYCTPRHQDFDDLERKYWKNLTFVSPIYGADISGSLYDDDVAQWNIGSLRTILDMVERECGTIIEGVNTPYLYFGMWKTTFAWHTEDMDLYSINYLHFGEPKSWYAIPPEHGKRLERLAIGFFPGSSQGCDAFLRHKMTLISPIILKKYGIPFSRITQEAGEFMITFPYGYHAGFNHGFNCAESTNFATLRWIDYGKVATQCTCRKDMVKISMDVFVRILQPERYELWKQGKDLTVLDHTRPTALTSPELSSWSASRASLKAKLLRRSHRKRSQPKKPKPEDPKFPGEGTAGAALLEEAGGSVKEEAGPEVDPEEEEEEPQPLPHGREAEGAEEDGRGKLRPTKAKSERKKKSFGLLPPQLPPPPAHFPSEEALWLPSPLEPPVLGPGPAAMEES
Procedure: (§2) Assays are performed analogously to the protocol described by PerkinElmer (Roy et al. PerkinElmer Technical Note: AlphaLISA #12, April 2011)
(§3) Enzymes are dissolved in enzyme buffer and incubated for 10 min before being added to 3% DMSO solutions of compounds in enzyme buffer. Incubated for another 10 minutes, before substrate solution is added and the reaction mixture is incubated at room temperature. 10 μL acceptor beads, suspended in Epigenetic Buffer (Perkin Elmer AL008) from stock, are added and the suspension is incubated in the dark at room temperature, before a suspension of streptavidin donor beads (Perkin Elmer 6760002) in Epigenetic Buffer is added. After incubation at room temperature in the dark the plates are read.
BK9M3: Biotin-ARTKQTAR(KMe3)STGGKAPRKQ-NH2 (Caslo, Denmark) […]
(§4) Substrate Solution: Substrate, 25 μM L-Asc, and 10 μM α-KG in Buffer A.

KDM5B (PLU-1) = target: T3, KDM5B (PLU-1) (Homo sapiens, UniProt Q9UGL1); assay: Histone lysine demethylase AlphaLISA assay, KDM5B; settings: read-out: KDM5B HDME Inhibition IC50
T3 sequence (Q9UGL1 1-809): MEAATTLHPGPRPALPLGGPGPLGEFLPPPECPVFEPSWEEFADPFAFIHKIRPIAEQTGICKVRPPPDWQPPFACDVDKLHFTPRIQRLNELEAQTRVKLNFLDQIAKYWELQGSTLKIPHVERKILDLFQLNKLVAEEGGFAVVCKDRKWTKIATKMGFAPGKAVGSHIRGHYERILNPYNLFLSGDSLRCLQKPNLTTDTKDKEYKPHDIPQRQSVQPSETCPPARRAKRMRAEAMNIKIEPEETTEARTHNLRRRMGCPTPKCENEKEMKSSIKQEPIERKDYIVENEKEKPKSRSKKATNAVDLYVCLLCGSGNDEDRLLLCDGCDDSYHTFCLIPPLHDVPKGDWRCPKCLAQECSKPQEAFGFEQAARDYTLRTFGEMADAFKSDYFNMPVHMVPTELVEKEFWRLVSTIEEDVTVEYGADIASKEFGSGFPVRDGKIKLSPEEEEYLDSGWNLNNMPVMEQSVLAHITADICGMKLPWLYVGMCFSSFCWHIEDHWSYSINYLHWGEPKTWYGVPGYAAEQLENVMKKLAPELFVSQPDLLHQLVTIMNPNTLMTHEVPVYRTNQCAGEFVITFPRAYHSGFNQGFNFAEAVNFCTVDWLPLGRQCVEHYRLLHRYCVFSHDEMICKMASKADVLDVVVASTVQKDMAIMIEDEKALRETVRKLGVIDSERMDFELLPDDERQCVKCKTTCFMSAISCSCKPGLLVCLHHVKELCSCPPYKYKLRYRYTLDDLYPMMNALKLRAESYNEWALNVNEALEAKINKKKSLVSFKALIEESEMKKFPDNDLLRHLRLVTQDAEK
In short: as §1

KDM6B (JMJD3) = target: T4, KDM6B (JMJD3) (Homo sapiens, UniProt O15054); assay: Histone lysine demethylase AlphaLISA assay, KDM6B; settings: read-out: KDM6B HDME Inhibition IC50
T4 construct: 1043-end; purchased BPS; host or cells: Bac (baculovirus system)
T4 sequence (O15054 1043-1682 isoform O15054-1 limits assumed): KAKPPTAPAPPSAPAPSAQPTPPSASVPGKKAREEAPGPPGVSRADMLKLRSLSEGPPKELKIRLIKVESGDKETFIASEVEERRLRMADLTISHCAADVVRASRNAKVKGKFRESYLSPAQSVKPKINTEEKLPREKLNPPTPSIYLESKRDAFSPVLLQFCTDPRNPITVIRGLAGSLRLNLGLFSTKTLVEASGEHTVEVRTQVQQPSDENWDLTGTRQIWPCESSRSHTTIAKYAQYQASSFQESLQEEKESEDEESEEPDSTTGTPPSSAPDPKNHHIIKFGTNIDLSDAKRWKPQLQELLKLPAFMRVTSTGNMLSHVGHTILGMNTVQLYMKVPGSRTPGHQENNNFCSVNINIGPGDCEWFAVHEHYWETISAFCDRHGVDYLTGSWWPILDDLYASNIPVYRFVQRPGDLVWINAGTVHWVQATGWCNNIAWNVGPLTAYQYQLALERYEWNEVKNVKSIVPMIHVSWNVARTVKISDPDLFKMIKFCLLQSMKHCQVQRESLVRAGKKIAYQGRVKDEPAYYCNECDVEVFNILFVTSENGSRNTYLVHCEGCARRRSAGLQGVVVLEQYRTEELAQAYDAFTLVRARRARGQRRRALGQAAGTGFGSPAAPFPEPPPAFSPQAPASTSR
Procedure: as §2
as §3, with “read. […]” for “read.”
BK27M3: Biotin-ATKAAR(Kme3)SAPATGGVKKPHRY-NH2? (Caslo, Denmark) […]
as §4

Row | IC50 (KDM2B (FBXL10)) | IC50 (KDM4B (JMJD2B)) | IC50 (KDM5B (PLU-1)) | IC50 (KDM6B (JMJD3)) | SMILES
1 | > 2500 nM | 250 to 2500 nM | < 250 nM | > 2500 nM | CCN(CC)CCCCNCc1cc(/C=N/CC(F)(F)C(F)(F)F)ccn1 [Compound 62, {[2-({[4-(diethylamino)-butyl]amino}methyl)pyridin-4-yl]methylidene} (2,2,3,3,3-pentafluoropropyl)-amine]
2 | > 2500 nM | > 2500 nM | > 2500 nM | > 2500 nM | CN(C)CCNCc1cc(CNC(C#N)C2CC2)ccn1 (stereo not shown) [Compound 21, 2-cyclopropyl-2-({[2-({[2-(dimethylamino)ethyl]-amino}methyl)pyridin-4-yl]methyl}amino)-acetonitrile]
3 | > 2500 nM | < 250 nM | < 250 nM | > 2500 nM | CCN(CCN(C)C)C(=O)CNCc1cc(CN)ccn1 [Compound 4, 2-({[4-(aminomethyl)pyridin-2-yl]methyl}amino)-N-[2-(dimethylamino)ethyl]-N-ethylacetamide]
4 | 250 to 2500 nM | > 2500 nM | < 250 nM | > 2500 nM | CN(C)C(=O)CNCc1cc(/C=N\C2CC2)ccn1 [Compound 33]
5 | > 2500 nM | 250 to 2500 nM | < 250 nM | > 2500 nM | O=Cc1ccnc(CNCCCN2CCCC2)c1 [Compound 111, 2-({[3-(pyrrolidin-1-yl)propyl]amino}-methyl)pyridine-4-carbaldehyde]
6 | > 2500 nM | < 250 nM | 250 to 2500 nM | > 2500 nM | NCc1ccnc(CNCCCCN2CCC2)c1 [Compound 7, [2-({[4-(azetidin-1-yl)butyl]amino}methyl)-pyridin-4-yl]-methanamine]
7 | > 2500 nM | 250 to 2500 nM | < 250 nM | > 2500 nM | CN(C)CCNCc1ccnc(CNCC(=O)N(C)C)c1 [Compound 15, 2-({[4-({[2-(dimethylamino)ethyl]-amino}methyl)pyridin-2-yl]methyl}amino)-N,N-dimethylacetamide]
8 | > 2500 nM | < 250 nM | < 250 nM | > 2500 nM | CN(C)C/C=C/CNCc1cc(/C=N/C2CC2)ccn1 [Compound 43, N-{[2-({[(2E)-4-(dimethylamino)but-2-en-1-yl]amino}-methyl)pyridin-4-yl]methylidene}-cyclopropanamine]
9 | > 2500 nM | < 250 nM | < 250 nM | > 2500 nM | CCN(CCN(C)C)C(=O)CNCc1cc(C=O)ccn1 [Compound 101]

The next lines start with the molecule.

Row | SMILES | IC50 (KDM2B (FBXL10)) | IC50 (KDM4B (JMJD2B)) | IC50 (KDM5B (PLU-1)) | IC50 (KDM6B (JMJD3))
10 | CNCc1ccnc(CNCCCN(C)Cc2ccccc2)c1 [Compound 17, benzyl(methyl){3-[({4-[(methylamino)methyl]-pyridin-2-yl)methyl)-amino]propyl}-amine] | > 2500 nM | 250 to 2500 nM | < 250 nM | > 2500 nM
11 | CCN(CC)CCCCNCc1cc(C2NCCN2C)ccn1 (stereo not shown) [Compound 65, [4-(diethylamino)-butyl]({[4-(1-methylimidazolidin-2-yl)pyridin-2-yl]methyl})amine] | > 2500 nM | > 2500 nM | < 250 nM | > 2500 nM
12 | CC1CCCCN1CCCNCc1cc(CNC2CC2)ccn1 (stereo not shown) [Compound 11, N-{[2-({[3-(2-methylpiperidin-1-yl)propyl]amino}methyl)-pyridin-4-yl]methyl}-cyclopropanamine] | > 2500 nM | > 2500 nM | 250 to 2500 nM | > 2500 nM
13 | CN(CCCNCc1cc(/C=N/C2CC2)ccn1)Cc1ccccc1 [Compound 41, N-({2-[({3-[benzyl(methyl)amino]-propyl}amino)methyl]-pyridin-4-yl}methylidene)-cyclopropanamine] | > 2500 nM | < 250 nM | < 250 nM | > 2500 nM
14 | CN(C)C(=O)CNCc1cc(/C=N/CCC2CCCCC2)ccn1 [Compound 36, 2-[({4-[[(2-cyclohexylethyl)imino]-methyl]pyridin-2-yl}methyl)amino]-N,N-dimethylacetamide] | > 2500 nM | < 250 nM | < 250 nM | > 2500 nM
15 | CN1CCN(C(=O)CNCc2cc(/C=N/C3CC3)ccn2)CC1 [Compound 54, 2-[({4-[N-cyclopropyl-carboximidoyl]-pyridin-2-yl}methyl)amino]-1-(4-methylpiperazin-1-yl)ethan-1-one] | > 2500 nM | 250 to 2500 nM | < 250 nM | > 2500 nM
16 | N#CCNCc1ccnc(CNCCCCN(Cc2ccccc2)C2CC2)c1 [Compound 23, 2-[({2-[({4-[benzyl(cyclopropyl)-amino]butyl}amino)-methyl]pyridin-4-yl}methyl)amino]-acetonitrile] | > 2500 nM | > 2500 nM | 250 to 2500 nM | > 2500 nM
17 | CN(C)CCCCCNCc1cc(CN)ccn1 [Compound 8, [2-({[5-(dimethylamino)pentyl]-amino}methyl)pyridin-4-yl]methanamine] | > 2500 nM | > 2500 nM | < 250 nM | > 2500 nM
18 | CCCNCc1cc(CNC2CC2)ccn1 [Compound 12, N-({2-[(propylamino)methyl]-pyridin-4-yl}methyl)-cyclopropanamine] | > 2500 nM | < 250 nM | 250 to 2500 nM | > 2500 nM
19 | CCN(CC)CCCCNCc1cc(/C=N/CCOC)ccn1 [Compound 60, [4-(diethylamino)butyl]-({4-[[(2-methoxyethyl)imino]-methyl]pyridin-2-yl}methyl)amine] | > 2500 nM | < 250 nM | < 250 nM | > 2500 nM
